Assay results reported in publication PMC11649115, “In vitro safety evaluation of dopamine D3R antagonist, R-VK4-116, as a potential medication for the treatment of opioid use disorder” (PLOS ONE, 2024).
Read-outs that look alike come from different tables or passages of the source.

Experiments:
HepG2 cells [1] = experiment: Mitochondrial toxicity (MT) assay panel; type: cell-based
Description: The assay results were presented as % cell viability. […] After each incubation, the cells were harvested and lysed to test the MT assay panel. The Zalcitabine (positive control) was also included in this assay (Fig 3 in S1 File). The levels of Mitochondrial Oxidative Phosphorylation (OXPHOS) complex 1 (NADH dehydrogenase; ab178011, lot #GR 3339973–1), complex 3 (CytC reductase; ab124537, lot #GR3276896-3), complex 4 (CytC Oxidase; ab179880, lot #GR3273194-1), and complex 5 (ATP synthase; ab124539, lot #GR3267780-4) in the cell lysates were determined using respective indirect ELISA as per manufacturer’s instructions. The total ATP content of the cell lysates was determined using an ATP assay kit (ab83355, lot #GR3314128-2, Abcam, Cambridge, MA). The Caspase 3 content of the cell lysates was determined using the Caspase-3 assay kit (ab39401, lot #GR3322733-1, Abcam, Cambridge, MA). In addition, the total glutathione content was determined using the total glutathione (GSSG/GSH) assay kit (STA-312, lot #09100263, Oxiselect™, San Diego, CA). Using an Oxiselect™ ROS/RNS assay kit (STA-347, lot #7081343, Cell Biolabs Inc. San Diego, CA), the ROS/RNS content of the cell lysates was determined by fluorescence assay.

SRPK2 = molecular target: T1, SRPK2 (Homo sapiens, UniProt P78362); experiment: KINOMEscan binding (% Ctrl, Kd)
T1 construct: made in house; host or cells: E. coli BL21-derived host (T7 phage) or HEK-293
Description: (§1) Briefly, E. coli host derived from the BL21 strain were grown to log-phase and infected with kinase-tagged T7 phage and incubated with shaking at 32°C until lysis. The lysates were centrifuged and filtered to remove cell debris. The remaining kinases were produced in HEK-293 cells and subsequently tagged with DNA for qPCR detection. Streptavidin-coated magnetic beads were treated with biotinylated small molecule ligands to generate affinity resins for kinase assays. The liganded beads were blocked with excess biotin and washed to remove unbound ligand and to reduce non-specific phage binding. […] Selectivity Score (S-score) was a quantitative measure of compound selectivity. […] The binding constants (Kds) were also determined with a standard dose-response curve using the Hill equation and Levenberg-Marquardt algorithm [24, 25].

hGABAA∞1β2γ2 = molecular target: T2, hGABAA∞1β2γ2 (Homo sapiens, UniProt P14867+P18507+P47870); experiment: IonFlux HT electrophysiological assay; type: cell-based; conditions: 10 μM
T2 construct: Eurofins Cerep (France) and Eurofins Discovery (St. Charles, MO)
Description: Electrophysiological assays were also conducted to profile R-VK4-116 for activities on ion channel targets. The QPatch HT (patch clamp) measured the agonist or antagonist activity of R-VK4-116 on ion channels. For these assays, the voltage was used as the ligand to activate the channel and induce a measurable current. The IonFlux HT measured the agonist, antagonist, or PAM activity of R-VK4-116 on ligand-gated ion channels. For these assays, GABA or Acetylcholine (ACh) was used as the ligand to activate the channel and induce measurable current. The six ion channels tested at 10 μM of R-VK4-116 in replicate were hNav1.5 Peak, hERG, hKCNQ1/minK, hCav1.2, hGABAA∞1/β2g2 and hnAChR∞4/β2.

OCT2 = molecular target: T3, OCT2 (Homo sapiens, UniProt O15244); experiment: Transporter mediated assay (substrate/inhibitor), MDCK-II cells; type: in vitro ADME
T3 construct: expressed in transfected cells; host or cells: MDCK-II cells
T3 sequence (O15244 1-555): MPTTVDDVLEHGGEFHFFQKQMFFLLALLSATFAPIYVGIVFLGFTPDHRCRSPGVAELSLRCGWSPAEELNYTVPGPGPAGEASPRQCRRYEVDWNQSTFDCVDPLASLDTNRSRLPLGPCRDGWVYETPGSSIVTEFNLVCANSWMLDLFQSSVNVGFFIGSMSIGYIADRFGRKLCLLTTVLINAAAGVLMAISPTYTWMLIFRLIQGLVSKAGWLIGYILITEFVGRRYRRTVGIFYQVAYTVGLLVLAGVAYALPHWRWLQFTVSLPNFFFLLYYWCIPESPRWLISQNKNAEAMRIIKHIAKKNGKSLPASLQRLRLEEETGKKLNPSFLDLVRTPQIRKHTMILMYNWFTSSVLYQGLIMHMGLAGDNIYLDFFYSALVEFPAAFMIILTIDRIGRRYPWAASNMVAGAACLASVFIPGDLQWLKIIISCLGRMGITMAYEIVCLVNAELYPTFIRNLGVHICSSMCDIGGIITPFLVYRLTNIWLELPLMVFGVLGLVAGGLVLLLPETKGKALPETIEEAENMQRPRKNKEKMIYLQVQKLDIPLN
Description: The MDCK-II cells were treated to express the transporter of interest. The transport of each probe substrate was determined by radiometric detection (Fig 1 in S1 File). […] For the uptake assay, the net transporter-mediated uptake-rate (V) of the substrate by each SLC transporter was calculated as follows: Transporter–mediatedupdaterate(pmol/min/cm^2)=(Cellularaccumulationincellsexpressingthetransporter)−(Meancellularaccumulationincontrolcells)/Surfacearea×incubationtime
Fold of activity and percent inhibition were determined as follows: Foldofactivity=(Meanuptakerate)transporterexpressingcells/(Meanuptakerate)controlcells Percentinhibition=100−100×(Transport‐mediatedupdaterate)withinhibitor/(Transport‐mediatedupdaterate)vehiclecontrol

CYP2C19 = CYP2C19 (Homo sapiens, UniProt P33261); experiment: CYP inhibition in human liver microsomes; conditions: human liver microsomes
hERG = hERG (Homo sapiens, UniProt Q12809); experiment: CiPA IonChannelProfiler Cardiac Panel, QPatch
MARK3 = molecular target: T4, MARK3 (Homo sapiens, UniProt P27448); experiment: KINOMEscan binding (% Ctrl, Kd)
T4 construct: made in house; host or cells: E. coli BL21-derived host (T7 phage) or HEK-293
Description: as §1

HepG2 cells [2] = experiment: Lysosomal trapping assay (Lyso-ID Red); type: cell-based; conditions: HepG2, 0.1, 1.0, and 10.0 μM, up to 72 hr
Description: After incubation timepoint, the treated cells were washed and incubated with fluorescent dual color detection reagent for 60 min. Subsequently, the fluorescence was measured with Spectramax ID5. An increase in red signal without significant loss (no more than 30%) of the blue signal indicates the accumulation of test article within the cells arising from an increase in lysosome or lysosome-like vesicles in size and/or number. The assay results were presented as fluorescence fold change for red stain and blue stain individually and were calculated as follows: Fluorescencefoldchange=RelativeFluorescenceUnit(RFU)measuredfortestarticleconcentration/RFUmeasuredforrespectivesolventcontrol
The acceptance criteria for significant lysosomal perturbation was a ≥ 2-fold increase in red fluorescence with no loss of blue fluorescence.

D3R = molecular target: D3R; set-up: method as in PMID 31526003; conditions: read-out: binding affinity for D3R (Ki); cited from earlier work
CYP2C9 = CYP2C9 (Homo sapiens, UniProt P11712); experiment: CYP inhibition in human liver microsomes; conditions: human liver microsomes
CYP2B6 = experiment: CYP induction, mRNA, primary cultured human hepatocytes; conditions: primary cultured human hepatocytes, Fold Induction (CYP2B6 mRNA expression)
Description: Rifampicin as a positive control and solvent (0.1% DMSO) vehicle control were also included. The acceptance criteria for CYP induction was ≥ 2-fold induction for significant CYP activity, while the acceptance criteria for CYP mRNA was ≥ 4-fold for significant CYP induction.

[3] = HepG2, 0.1, 1 and 10 μM, 7- and 14-day
[4] = 11-point curve 0.001 to 10 μM, read-out: binding constant (Kd)

Chain of hERG (Q12809 whole entry): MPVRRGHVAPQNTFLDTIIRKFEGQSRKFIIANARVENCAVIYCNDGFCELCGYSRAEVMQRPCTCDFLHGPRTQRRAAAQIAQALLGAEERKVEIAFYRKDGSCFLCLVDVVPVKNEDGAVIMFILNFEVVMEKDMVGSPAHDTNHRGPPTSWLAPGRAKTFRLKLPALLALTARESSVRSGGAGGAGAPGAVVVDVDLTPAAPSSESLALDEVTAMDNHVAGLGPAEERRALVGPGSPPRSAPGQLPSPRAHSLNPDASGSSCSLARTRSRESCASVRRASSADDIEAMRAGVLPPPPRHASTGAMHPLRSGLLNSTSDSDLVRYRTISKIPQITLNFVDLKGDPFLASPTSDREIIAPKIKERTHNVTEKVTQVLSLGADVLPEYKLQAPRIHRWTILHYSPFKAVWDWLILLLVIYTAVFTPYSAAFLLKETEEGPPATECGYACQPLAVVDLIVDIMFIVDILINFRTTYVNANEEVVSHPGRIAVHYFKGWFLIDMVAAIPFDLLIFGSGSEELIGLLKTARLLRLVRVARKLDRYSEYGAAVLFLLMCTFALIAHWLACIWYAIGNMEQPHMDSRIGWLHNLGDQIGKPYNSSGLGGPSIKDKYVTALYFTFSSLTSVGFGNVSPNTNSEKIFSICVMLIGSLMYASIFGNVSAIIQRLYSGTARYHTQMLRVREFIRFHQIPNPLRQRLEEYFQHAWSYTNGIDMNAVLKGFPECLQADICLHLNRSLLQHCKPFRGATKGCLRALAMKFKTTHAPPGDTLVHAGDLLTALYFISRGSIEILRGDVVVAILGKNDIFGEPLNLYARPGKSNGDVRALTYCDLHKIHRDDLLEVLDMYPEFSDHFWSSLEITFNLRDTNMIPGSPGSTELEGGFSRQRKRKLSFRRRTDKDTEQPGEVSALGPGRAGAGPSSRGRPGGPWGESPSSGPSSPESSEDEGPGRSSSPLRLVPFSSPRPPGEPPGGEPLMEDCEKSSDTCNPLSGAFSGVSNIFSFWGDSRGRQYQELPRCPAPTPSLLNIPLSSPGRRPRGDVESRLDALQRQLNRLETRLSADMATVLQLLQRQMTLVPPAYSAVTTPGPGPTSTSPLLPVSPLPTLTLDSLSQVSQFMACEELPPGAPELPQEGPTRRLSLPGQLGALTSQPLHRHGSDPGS
T1 sequence (P78362 whole entry): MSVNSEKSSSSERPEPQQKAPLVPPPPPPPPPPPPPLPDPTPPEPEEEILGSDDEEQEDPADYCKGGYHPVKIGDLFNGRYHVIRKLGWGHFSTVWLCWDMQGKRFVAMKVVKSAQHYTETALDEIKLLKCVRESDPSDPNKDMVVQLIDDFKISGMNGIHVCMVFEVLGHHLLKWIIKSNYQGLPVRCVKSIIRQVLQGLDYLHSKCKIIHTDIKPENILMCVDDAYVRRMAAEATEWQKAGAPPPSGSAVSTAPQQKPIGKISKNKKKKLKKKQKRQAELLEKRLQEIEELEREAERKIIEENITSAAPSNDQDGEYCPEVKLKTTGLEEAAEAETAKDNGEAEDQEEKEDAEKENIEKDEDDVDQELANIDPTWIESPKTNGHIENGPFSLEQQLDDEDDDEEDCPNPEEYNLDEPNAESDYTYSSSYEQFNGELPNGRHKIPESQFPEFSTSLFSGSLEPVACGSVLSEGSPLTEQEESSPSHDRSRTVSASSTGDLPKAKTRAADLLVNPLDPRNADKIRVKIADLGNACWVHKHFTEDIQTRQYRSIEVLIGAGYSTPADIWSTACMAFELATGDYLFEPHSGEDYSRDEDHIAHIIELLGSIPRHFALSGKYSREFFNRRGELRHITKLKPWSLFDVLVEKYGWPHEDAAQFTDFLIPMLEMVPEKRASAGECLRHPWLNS
Chain of CYP2C9 (P11712 whole entry): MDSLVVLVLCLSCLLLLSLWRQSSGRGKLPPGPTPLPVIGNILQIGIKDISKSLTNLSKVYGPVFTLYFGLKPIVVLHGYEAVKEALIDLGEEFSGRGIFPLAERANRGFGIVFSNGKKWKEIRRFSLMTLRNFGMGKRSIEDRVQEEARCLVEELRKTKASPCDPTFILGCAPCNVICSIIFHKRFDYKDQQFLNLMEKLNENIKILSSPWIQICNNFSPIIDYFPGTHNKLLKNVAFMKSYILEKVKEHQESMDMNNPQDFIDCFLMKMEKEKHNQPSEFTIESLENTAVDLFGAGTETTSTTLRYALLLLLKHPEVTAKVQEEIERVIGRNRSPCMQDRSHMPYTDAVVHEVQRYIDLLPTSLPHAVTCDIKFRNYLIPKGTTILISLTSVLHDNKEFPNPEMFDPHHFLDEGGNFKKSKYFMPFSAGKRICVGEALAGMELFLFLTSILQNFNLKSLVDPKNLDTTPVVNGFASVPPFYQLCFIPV
Chain of CYP2C19 (P33261 whole entry): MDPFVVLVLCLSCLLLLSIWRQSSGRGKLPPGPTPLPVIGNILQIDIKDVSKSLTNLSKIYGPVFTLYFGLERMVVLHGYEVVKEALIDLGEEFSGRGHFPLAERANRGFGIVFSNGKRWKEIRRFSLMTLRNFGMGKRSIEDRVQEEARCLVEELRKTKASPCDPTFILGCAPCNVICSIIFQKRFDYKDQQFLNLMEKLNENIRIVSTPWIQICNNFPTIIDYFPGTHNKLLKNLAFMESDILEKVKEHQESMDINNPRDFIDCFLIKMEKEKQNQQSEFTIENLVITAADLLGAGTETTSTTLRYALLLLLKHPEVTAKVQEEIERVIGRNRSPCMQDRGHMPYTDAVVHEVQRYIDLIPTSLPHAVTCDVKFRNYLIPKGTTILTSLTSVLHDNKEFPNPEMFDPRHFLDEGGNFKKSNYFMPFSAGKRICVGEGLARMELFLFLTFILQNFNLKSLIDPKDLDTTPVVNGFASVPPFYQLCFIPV
T4 sequence (P27448 whole entry): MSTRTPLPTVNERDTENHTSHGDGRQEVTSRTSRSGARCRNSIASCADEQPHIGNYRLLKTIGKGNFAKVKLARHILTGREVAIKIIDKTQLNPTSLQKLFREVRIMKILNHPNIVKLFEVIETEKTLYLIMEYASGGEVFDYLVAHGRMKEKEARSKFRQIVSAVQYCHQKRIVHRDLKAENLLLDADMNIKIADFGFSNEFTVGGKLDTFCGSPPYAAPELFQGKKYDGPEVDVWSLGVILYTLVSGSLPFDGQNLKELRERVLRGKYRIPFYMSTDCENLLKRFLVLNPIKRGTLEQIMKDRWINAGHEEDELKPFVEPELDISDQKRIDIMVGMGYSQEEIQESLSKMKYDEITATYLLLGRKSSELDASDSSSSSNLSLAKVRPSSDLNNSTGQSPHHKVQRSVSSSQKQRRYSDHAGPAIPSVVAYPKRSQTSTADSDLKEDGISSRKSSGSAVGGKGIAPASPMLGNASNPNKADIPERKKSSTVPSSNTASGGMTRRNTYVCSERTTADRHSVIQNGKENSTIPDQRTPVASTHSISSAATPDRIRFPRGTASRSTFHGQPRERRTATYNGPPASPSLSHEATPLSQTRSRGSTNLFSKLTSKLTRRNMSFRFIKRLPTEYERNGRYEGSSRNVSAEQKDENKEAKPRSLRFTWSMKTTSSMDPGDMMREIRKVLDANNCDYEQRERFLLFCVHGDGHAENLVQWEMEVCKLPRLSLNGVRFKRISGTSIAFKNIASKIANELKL
T2 sequence (P14867 28-456): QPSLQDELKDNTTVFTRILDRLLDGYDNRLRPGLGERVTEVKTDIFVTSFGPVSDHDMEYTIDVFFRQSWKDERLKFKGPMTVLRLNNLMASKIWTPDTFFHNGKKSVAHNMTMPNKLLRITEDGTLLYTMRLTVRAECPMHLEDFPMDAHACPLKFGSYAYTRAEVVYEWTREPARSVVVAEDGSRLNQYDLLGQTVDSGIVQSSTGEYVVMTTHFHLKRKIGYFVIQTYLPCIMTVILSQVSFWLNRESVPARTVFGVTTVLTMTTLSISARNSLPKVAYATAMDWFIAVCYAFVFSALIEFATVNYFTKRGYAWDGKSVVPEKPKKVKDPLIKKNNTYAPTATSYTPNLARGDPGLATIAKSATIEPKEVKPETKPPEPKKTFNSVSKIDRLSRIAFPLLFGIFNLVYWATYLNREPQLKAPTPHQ
T2 sequence (P47870 25-512 limits assumed): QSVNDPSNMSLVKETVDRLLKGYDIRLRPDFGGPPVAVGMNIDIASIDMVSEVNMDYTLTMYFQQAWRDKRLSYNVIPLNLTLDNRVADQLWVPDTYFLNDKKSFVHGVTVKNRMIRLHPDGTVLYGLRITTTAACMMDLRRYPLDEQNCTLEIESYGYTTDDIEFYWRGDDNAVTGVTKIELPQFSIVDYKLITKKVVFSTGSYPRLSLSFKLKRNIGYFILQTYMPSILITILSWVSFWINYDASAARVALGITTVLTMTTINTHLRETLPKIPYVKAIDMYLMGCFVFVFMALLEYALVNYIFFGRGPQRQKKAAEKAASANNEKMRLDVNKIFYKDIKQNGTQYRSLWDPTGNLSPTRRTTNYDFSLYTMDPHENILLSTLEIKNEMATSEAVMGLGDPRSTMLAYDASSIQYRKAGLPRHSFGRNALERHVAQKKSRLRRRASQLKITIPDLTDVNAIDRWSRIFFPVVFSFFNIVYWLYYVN
T2 sequence (P18507 40-475): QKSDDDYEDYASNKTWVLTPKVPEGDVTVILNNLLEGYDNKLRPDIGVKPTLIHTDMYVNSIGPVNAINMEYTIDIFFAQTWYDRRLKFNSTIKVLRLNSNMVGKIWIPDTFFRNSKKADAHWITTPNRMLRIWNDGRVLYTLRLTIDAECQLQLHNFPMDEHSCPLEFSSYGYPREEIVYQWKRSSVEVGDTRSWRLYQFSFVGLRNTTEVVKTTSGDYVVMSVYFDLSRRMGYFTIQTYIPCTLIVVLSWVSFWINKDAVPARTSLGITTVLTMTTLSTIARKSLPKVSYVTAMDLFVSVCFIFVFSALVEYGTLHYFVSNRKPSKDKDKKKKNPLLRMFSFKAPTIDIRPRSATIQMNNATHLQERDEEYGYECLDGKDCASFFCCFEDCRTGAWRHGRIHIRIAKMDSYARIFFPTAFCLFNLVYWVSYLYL

CCc1cc(Cl)c(OC)c(N2CCN(CC(O)CCNC(=O)c3cc4ccccc4[nH]3)CC2)c1 (stereo not shown) [R-VK4-116, N-(4-(4-(3-chloro-5-ethyl-2-methoxyphenyl)piperazin-1-yl)-3-hydroxybutyl)-1H-indole-2-carboxamide]
OXPHOS complex 1, 3, 4, and 5 or total ATP levels (HepG2 cells [1]; [3]): No significant decrease
caspase 3, or total glutathione levels (HepG2 cells [1]; [3]): no significant increase
increase in ROS/RNS levels compared with the solvent control (HepG2 cells [1]; HepG2, 7-days, all three concentrations (0.1, 1, 10 μM)): 10–35%
Kd (SRPK2; [4]): > 10 µM
remaining binding at 1 µM (SRPK2; read-out: %Control): < 35%
remaining binding at 1 µM (SRPK2; read-out: Gene (S-score with % control): SRPK2): 21%
agonist effect (hGABAA∞1β2γ2): 97.71%
fold difference in mean uptake rate (substrate test) (OCT2; OCT2, 1 μM, transporter cells vs control cells): < 2 fold
Inhibition (%) (OCT2; OCT2, 0.1% BSA, 10 μM): no statistically significant inhibition
inhibition at 10 µM (OCT2; human, polarized monolayer of MDCK-II cells expressing OCT2, OCT2, 0.1% BSA, 10 μM): -17.4 ± 1.88%
CYP2C19 inhibition (CYP2C19; up to 100 μM): did not inhibit CYP significantly
activity at 20 min, 0.1 µM (CYP2C19; human, probe mephenytoin): 102 ± 4.6%
activity at 20 min, 0.3 µM (CYP2C19; human, probe mephenytoin): 96.2 ± 5%
activity at 20 min, 1 µM (CYP2C19; human, probe mephenytoin): 97.3 ± 2.2%
activity at 20 min, 3 µM (CYP2C19; human, probe mephenytoin): 95.9 ± 3.6%
activity at 20 min, 10 µM (CYP2C19; human, probe mephenytoin): 99.6 ± 3.3%
activity at 20 min, 30 µM (CYP2C19; human, probe mephenytoin): 96.7 ± 3.5%
activity at 20 min, 60 µM (CYP2C19; human, probe mephenytoin): 95 ± 5.4%
activity at 20 min, 100 µM (CYP2C19; human, probe mephenytoin): 99.7 ± 3.4%
inhibition at 10 µM (hERG; 10 μM): 54.6%
inhibition at 100 µM (hERG; 100 μM): 82.3%
inhibition at 10 µM (hERG; ≥10 μM): 54 to 82%
Kd (MARK3; [4]): > 10 µM
remaining binding at 1 µM (MARK3; read-out: %Control): < 35%
remaining binding at 1 µM (MARK3; read-out: Gene (S-score with % control): MARK3): 0%
red lysosomal stain signal / blue nuclear stain signal over solvent control (HepG2 cells [2]): No significant increase in red lysosomal stain signal or decrease in blue nuclear stain signal
Ki (D3R): 0.0074 µM
CYP2C9 inhibition (CYP2C9; up to 100 μM): did not inhibit CYP significantly
activity at 20 min, 0.1 µM (CYP2C9; human, probe diclofenac): 89.5 ± 9.2%
activity at 20 min, 0.3 µM (CYP2C9; human, probe diclofenac): 79 ± 2.7%
activity at 20 min, 1 µM (CYP2C9; human, probe diclofenac): 80.9 ± 2.2%
activity at 20 min, 3 µM (CYP2C9; human, probe diclofenac): 92.3 ± 10.1%
activity at 20 min, 10 µM (CYP2C9; human, probe diclofenac): 91.5 ± 7.3%
activity at 20 min, 30 µM (CYP2C9; human, probe diclofenac): 80.9 ± 0.9%
activity at 20 min, 60 µM (CYP2C9; human, probe diclofenac): 81.8 ± 3.1%
activity at 20 min, 100 µM (CYP2C9; human, probe diclofenac): 93.4 ± 8.1%
fold induction at 48 h, 0.01 µM (CYP2B6; hepatocyte Lot 336, 0.01 µM): 1
fold induction at 48 h, 0.1 µM (CYP2B6; hepatocyte Lot 336, 0.1 µM): 1
fold induction at 48 h, 1 µM (CYP2B6; hepatocyte Lot 336, 1 µM): 1.3
fold induction at 48 h, 3 µM (CYP2B6; hepatocyte Lot 336, 3 µM): 1.9
fold induction at 48 h, 5 µM (CYP2B6; hepatocyte Lot 336, 5 µM): 1.8
fold induction at 48 h, 0.1 µM (CYP2B6; hepatocyte Lot 399, 0.1 µM): 1.2
fold induction at 48 h, 1 µM (CYP2B6; hepatocyte Lot 399, 1 µM): 1.2
fold induction at 48 h, 3 µM (CYP2B6; hepatocyte Lot 399, 3 µM): 1.3
fold induction at 48 h, 5 µM (CYP2B6; hepatocyte Lot 399, 5 µM): 1.2
fold induction at 48 h, 10 µM (CYP2B6; hepatocyte Lot 399, 10 µM): 1.2
